Where a name gives a salt, the structure may show the parent alone.
Experiment: Dynamic Vapor Sorption (DVS), hygroscopicity of solids
Assay type: physicochemical
Conditions: from about 10% to about 90% RH at about 25° C.
Description: Dynamic Vapor Sorption (DVS):
DVS data, which was used to determine the hygroscopicity of solids, were collected on a TA Instruments Q5000SA system. The temperature-controlled chamber was set at 25° C. and dry nitrogen was introduced at a flow rate of 10 mL/min. Approximately 1 to 5 mg sample was placed in a semispherical metal-coated quartz crucible or a disposable aluminum pan. A stepwise isotherm experiment at 25° C. was conducted by controlling the relative humidity (RH) in the chamber from 10% to 90%, then down to 10%, at 10% increments to accomplish a full sorption/desorption cycle.

Compound	dynamic vapor sorption isotherm water uptake
CC#CC(=O)N1CC[C@@H](n2c(=O)n(-c3ccc(Oc4ccccc4)cc3)c3c(N)ncnc32)C1 [Compound (I) edisylate, 6-amino-9-[(3R)-1-(2-butynoyl)-3-pyrrolidinyl]-7-(4-phenoxyphenyl)-7,9-dihydro-8H-purin-8-one]	about 22%
CC#CC(=O)N1CC[C@@H](n2c(=O)n(-c3ccc(Oc4ccccc4)cc3)c3c(N)ncnc32)C1 [Compound (I) fumarate, 6-amino-9-[(3R)-1-(2-butynoyl)-3-pyrrolidinyl]-7-(4-phenoxyphenyl)-7,9-dihydro-8H-purin-8-one]	about 0.1%
CC#CC(=O)N1CC[C@@H](n2c(=O)n(-c3ccc(Oc4ccccc4)cc3)c3c(N)ncnc32)C1 [Compound (I) hemiedisylate, 6-amino-9-[(3R)-1-(2-butynoyl)-3-pyrrolidinyl]-7-(4-phenoxyphenyl)-7,9-dihydro-8H-purin-8-one]	about 3%
CC#CC(=O)N1CC[C@@H](n2c(=O)n(-c3ccc(Oc4ccccc4)cc3)c3c(N)ncnc32)C1 [Compound (I) heminapadisylate, 6-amino-9-[(3R)-1-(2-butynoyl)-3-pyrrolidinyl]-7-(4-phenoxyphenyl)-7,9-dihydro-8H-purin-8-one]	about 6.5%
CC#CC(=O)N1CC[C@@H](n2c(=O)n(-c3ccc(Oc4ccccc4)cc3)c3c(N)ncnc32)C1 [Compound (I) hemisulfate, 6-amino-9-[(3R)-1-(2-butynoyl)-3-pyrrolidinyl]-7-(4-phenoxyphenyl)-7,9-dihydro-8H-purin-8-one]	about 1.2%
CC#CC(=O)N1CC[C@@H](n2c(=O)n(-c3ccc(Oc4ccccc4)cc3)c3c(N)ncnc32)C1 [Compound (I) oxalate, 6-amino-9-[(3R)-1-(2-butynoyl)-3-pyrrolidinyl]-7-(4-phenoxyphenyl)-7,9-dihydro-8H-purin-8-one]	about 0.5%
CC#CC(=O)N1CC[C@@H](n2c(=O)n(-c3ccc(Oc4ccccc4)cc3)c3c(N)ncnc32)C1 [Compound (I) succinate, 6-amino-9-[(3R)-1-(2-butynoyl)-3-pyrrolidinyl]-7-(4-phenoxyphenyl)-7,9-dihydro-8H-purin-8-one]	about 0.2%

From patent US10370381B2, “Inhibitors of bruton'S tyrosine kinase” (GILEAD SCIENCES, INC., priority 2017, dated 2019)
